Patent US12590067B2, “Herbicidal cyclohexanedione derivatives” (SYNGENTA CROP PROTECTION AG, priority 2019, dated 2026)

Columns and labels:
Assay in all cases: Glasshouse herbicidal test, pre- and post-emergence, percentage damage to the plant
Assay type in all cases: in vivo
Avena fatua (AVEFA) = settings: 250 g/h, evaluated after 13 days; for AVEFA POST percentage damage caused to the plant (five-point scale): post-emergence; for AVEFA PRE percentage damage caused to the plant (five-point scale): pre-emergence
Procedure: (§1) Seeds of a variety of test species are sown in standard soil in pots (Lolium perenne (LOLPE), Setaria faberi (SETFA), Alopecurus myosuroides (ALOMY), Echinochloa crus-galli (ECHCG), Avena fatua (AVEFA)). After cultivation for one day (pre-emergence) or after 8 days cultivation (post-emergence) under controlled conditions in a glasshouse (at 24/16° C., day/night; 14 hours light; 65% humidity), the plants are sprayed with an aqueous spray solution derived from the formulation of the technical active ingredient in acetone/water (50:50) solution containing 0.5% Tween 20 (polyoxyethelyene sorbitan monolaurate, CAS RN 9005-64-5). Compounds are applied at 250 g/h. The test plants are then grown in a glasshouse under controlled conditions in a glasshouse (at 24/16° C., day/night; 14 hours light; 65% humidity) and watered twice daily. After 13 days for pre and post-emergence, the test is evaluated for the percentage damage caused to the plant. The biological activities are shown in the following table on a five-point scale (5=80-100%; 4=60-79%; 3=40-59%; 2=20-39%; 1=0-19%).

[1] = tested on: Echinochloa crus-galli (ECHCG); settings: 250 g/h, evaluated after 13 days; for ECHCG POST percentage damage caused to the plant (five-point scale): post-emergence; for ECHCG PRE percentage damage caused to the plant (five-point scale): pre-emergence
Procedure: as §1

Lolium perenne (LOLPE) = settings: 250 g/h, evaluated after 13 days; for LOLPE POST percentage damage caused to the plant (five-point scale): post-emergence; for LOLPE PRE percentage damage caused to the plant (five-point scale): pre-emergence
Procedure: as §1

Setaria faberi (SETFA) = settings: 250 g/h, evaluated after 13 days; for SETFA POST percentage damage caused to the plant (five-point scale): post-emergence; for SETFA PRE percentage damage caused to the plant (five-point scale): pre-emergence
Procedure: as §1

[2] = tested on: Alopecurus myosuroides (ALOMY); settings: 250 g/h, evaluated after 13 days; for ALOMY POST percentage damage caused to the plant (five-point scale): post-emergence; for ALOMY PRE percentage damage caused to the plant (five-point scale): pre-emergence
Procedure: as §1

| Compound | AVEFA POST percentage damage caused to the plant (five-point scale) (Avena fatua (AVEFA)) | AVEFA PRE percentage damage caused to the plant (five-point scale) (Avena fatua (AVEFA)) | ECHCG POST percentage damage caused to the plant (five-point scale) [1] | ECHCG PRE percentage damage caused to the plant (five-point scale) [1] | LOLPE POST percentage damage caused to the plant (five-point scale) (Lolium perenne (LOLPE)) | LOLPE PRE percentage damage caused to the plant (five-point scale) (Lolium perenne (LOLPE)) | SETFA POST percentage damage caused to the plant (five-point scale) (Setaria faberi (SETFA)) | SETFA PRE percentage damage caused to the plant (five-point scale) (Setaria faberi (SETFA)) | ALOMY POST percentage damage caused to the plant (five-point scale) [2] | ALOMY PRE percentage damage caused to the plant (five-point scale) [2] |
| --- | --- | --- | --- | --- | --- | --- | --- | --- | --- | --- |
| CC#Cc1cc(Cl)c(C2C(=O)CC3(CCN(C(C)=O)CC3)CC2=O)c(OC)c1 [Compound A1] | 5 (5=80-100%) | 5 (5=80-100%) | 5 (5=80-100%) | 5 (5=80-100%) | 5 (5=80-100%) | 5 (5=80-100%) | 5 (5=80-100%) | 5 (5=80-100%) | – | – |
| CC#Cc1cc(Cl)c(C2C(=O)CC3(CCN(S(=O)(=O)CC)CC3)CC2=O)c(OC)c1 [Compound A2] | 5 (5=80-100%) | 5 (5=80-100%) | 5 (5=80-100%) | 5 (5=80-100%) | 5 (5=80-100%) | 5 (5=80-100%) | 5 (5=80-100%) | 5 (5=80-100%) | 5 (5=80-100%) | 5 (5=80-100%) |
| CC#Cc1cc(Cl)c(C2C(=O)CC3(CCN(C(=O)c4ccccc4)CC3)CC2=O)c(OC)c1 [Compound A3, 3-benzoyl-9-(2-chloro-6-methoxy-4-prop-1-ynyl-phenyl)-3-azaspiro[5.5]undecane-8,10-dione] | 5 (5=80-100%) | 5 (5=80-100%) | 5 (5=80-100%) | 5 (5=80-100%) | 5 (5=80-100%) | 5 (5=80-100%) | 5 (5=80-100%) | 5 (5=80-100%) | 5 (5=80-100%) | 5 (5=80-100%) |
| CC#Cc1cc(Cl)c(C2C(=O)CC3(CCN(C(=O)c4ccccn4)CC3)CC2=O)c(OC)c1 [Compound A4] | 5 (5=80-100%) | 5 (5=80-100%) | 5 (5=80-100%) | 5 (5=80-100%) | 5 (5=80-100%) | 5 (5=80-100%) | 5 (5=80-100%) | 5 (5=80-100%) | 5 (5=80-100%) | 5 (5=80-100%) |
| CC#Cc1cc(Cl)c(C2C(=O)CC3(CCN(C(=O)COC)CC3)CC2=O)c(OC)c1 [Compound A5] | 5 (5=80-100%) | 5 (5=80-100%) | 5 (5=80-100%) | 5 (5=80-100%) | 5 (5=80-100%) | 5 (5=80-100%) | 5 (5=80-100%) | 5 (5=80-100%) | 5 (5=80-100%) | 5 (5=80-100%) |
| CC#Cc1cc(Cl)c(C2C(=O)CC3(CCN(C(=O)NC(C)(C)C)CC3)CC2=O)c(OC)c1 [Compound A6] | 5 (5=80-100%) | 5 (5=80-100%) | 5 (5=80-100%) | 5 (5=80-100%) | 5 (5=80-100%) | 5 (5=80-100%) | 5 (5=80-100%) | 5 (5=80-100%) | 5 (5=80-100%) | 5 (5=80-100%) |
| CC#Cc1cc(Cl)c(C2C(=O)CC3(CCN(C(=O)NC(=O)C(C)(C)C)CC3)CC2=O)c(OC)c1 [Compound A7] | 5 (5=80-100%) | 5 (5=80-100%) | 5 (5=80-100%) | 5 (5=80-100%) | 5 (5=80-100%) | 5 (5=80-100%) | 5 (5=80-100%) | 5 (5=80-100%) | 5 (5=80-100%) | 5 (5=80-100%) |
| CC#Cc1cc(Cl)c(C2C(=O)CC3(CCN(C(=O)C4CC4)CC3)CC2=O)c(OC)c1 [Compound A8] | 5 (5=80-100%) | 5 (5=80-100%) | 5 (5=80-100%) | 5 (5=80-100%) | 5 (5=80-100%) | 5 (5=80-100%) | 5 (5=80-100%) | 5 (5=80-100%) | 5 (5=80-100%) | 5 (5=80-100%) |
| CC#Cc1cc(Cl)c(C2C(=O)CC3(CCN(C(=O)C(F)F)CC3)CC2=O)c(OC)c1 [Compound A9] | 5 (5=80-100%) | 5 (5=80-100%) | 5 (5=80-100%) | 5 (5=80-100%) | 5 (5=80-100%) | 5 (5=80-100%) | 5 (5=80-100%) | 5 (5=80-100%) | 5 (5=80-100%) | 5 (5=80-100%) |
| CC#Cc1cc(Cl)c(C2C(=O)CC3(CCN(C(=O)C(C)(C)C)CC3)CC2=O)c(OC)c1 [Compound A10] | 5 (5=80-100%) | 5 (5=80-100%) | 5 (5=80-100%) | 5 (5=80-100%) | 5 (5=80-100%) | 5 (5=80-100%) | 5 (5=80-100%) | 5 (5=80-100%) | 5 (5=80-100%) | 5 (5=80-100%) |
| CC#Cc1cc(Cl)c(C2C(=O)CC3(CCN(C(=O)NC(=O)c4ccccn4)CC3)CC2=O)c(OC)c1 [Compound A11] | 5 (5=80-100%) | 3 (3=40-59%) | 5 (5=80-100%) | 5 (5=80-100%) | 5 (5=80-100%) | 5 (5=80-100%) | 5 (5=80-100%) | 5 (5=80-100%) | 5 (5=80-100%) | 5 (5=80-100%) |
| CC#Cc1cc(Cl)c(C2C(=O)CC3(CCN(C(=O)CC#N)CC3)CC2=O)c(OC)c1 [Compound A12] | 5 (5=80-100%) | 5 (5=80-100%) | 5 (5=80-100%) | 5 (5=80-100%) | 5 (5=80-100%) | 5 (5=80-100%) | 5 (5=80-100%) | 5 (5=80-100%) | 5 (5=80-100%) | 5 (5=80-100%) |
